In paper PMC5011342, “A high throughput drug screening assay to identify compounds that promote oligodendrocyte differentiation using acutely dissociated and purified oligodendrocyte precursor cells” (BMC Research Notes, 2016):
Where two headings read alike, the source gives them in different places.

Key:
[1] = tested on: acutely dissociated and purified rat OPCs; experiment: Acute OL differentiation assay (MBP expression/cell, immunofluorescent image quantification); type: cell-based
In short: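 This acute differentiation assay used purified rat OPCs from postnatal day 6–7 pups, seeded into PDL/laminin-coated 96-well plates in differentiation medium lacking PDGF and FGF. Compounds were applied in quadruplicate after a 1–2 h preincubation at 37 °C, 10 % CO2, with 0.1 % DMSO negative and 40 ng/ml T3 positive controls in eight wells. After fixation on DIV4, anti-MBP immunofluorescence images yielded MBP expression/cell.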

expanded OPCs = experiment: cells; details: for viability at 0.1 µM / viability at 1 µM / viability at 10 µM: Rattus norvegicus, 72 h
In short: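 Toxicity screen: compounds added at 0.1, 1 and 10 µM to PDGF-AA-expanded OPCs in 96-well plates, 3-day incubation at 37 °C, 10% CO2, then alamarBlue 1:10 for 4 h with fluorescence readout. Results set screening doses of 10/2, 2/0.4 or 0.4/0.08 µM.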

[2] = Rattus norvegicus, test compound at 2 uM, NCC library screen, sheet "All OLga data", relative to quetiapine, read-out: 2 uM (% Quet)
[3] = Rattus norvegicus, test compound at 10 uM, NCC library screen, sheet "All OLga data", relative to quetiapine, read-out: 10 uM (% Quet)
[4] = read-out: 0.1 µM (% DMSO), alamarBlue viability, NCC library compound at 0.1 µM, sheet "All Tox data"
[5] = read-out: 1 µM (% DMSO), alamarBlue viability, NCC library compound at 1 µM, sheet "All Tox data"
[6] = read-out: 10 µM (% DMSO), alamarBlue viability, NCC library compound at 10 µM, sheet "All Tox data"
[7] = Rattus norvegicus, test compound at 2 uM, MBP expression relative to quetiapine, NCC library screen, sheet "All OLga data", read-out: 2 uM (% Quet)
[8] = Rattus norvegicus, test compound at 10 uM, MBP expression relative to quetiapine, NCC library screen, sheet "All OLga data", read-out: 10 uM (% Quet)
[9] = alamarBlue viability of expanded OPCs, compound at 0.1 µM, relative to DMSO control
[10] = alamarBlue viability of expanded OPCs, compound at 1 µM, relative to DMSO control
[11] = alamarBlue viability of expanded OPCs, compound at 10 µM, relative to DMSO control
[12] = Rattus norvegicus, test compound at 0.4 uM, NCC library screen, sheet "All OLga data", relative to quetiapine, read-out: 0.4 uM (% Quet)
[13] = Rattus norvegicus, 2 uM test compound, relative to quetiapine, sheet "All OLga data", read-out: OL differentiation, 2 uM (% Quet)
[14] = Rattus norvegicus, 10 uM test compound, relative to quetiapine, sheet "All OLga data", read-out: OL differentiation, 10 uM (% Quet)
[15] = read-out: 0.1 µM (% DMSO), alamarBlue viability of expanded OPCs, compound at 0.1 µM, sheet All Tox data
[16] = read-out: 1 µM (% DMSO), alamarBlue viability of expanded OPCs, compound at 1 µM, sheet All Tox data
[17] = read-out: 10 µM (% DMSO), alamarBlue viability of expanded OPCs, compound at 10 µM, sheet All Tox data
[18] = Rattus norvegicus, test compound at 0.4 uM, MBP expression relative to quetiapine, NCC library screen, sheet "All OLga data", read-out: 0.4 uM (% Quet)
[19] = Rattus norvegicus, 0.4 uM test compound, relative to quetiapine, sheet "All OLga data", read-out: OL differentiation, 0.4 uM (% Quet)

| Structure (SMILES) | activation at 2 µM [1, 2] [%] | activation at 10 µM [1, 3] [%] | viability at 0.1 µM (expanded OPCs; [4]) [%] | viability at 1 µM (expanded OPCs; [5]) [%] | viability at 10 µM (expanded OPCs; [6]) [%] | 0.1 µM (% DMSO) (expanded OPCs; [9]) | 1 µM (% DMSO) (expanded OPCs; [10]) | 10 µM (% DMSO) (expanded OPCs; [11]) | activation at 2 µM [1, 13] [%] | further results |
| --- | --- | --- | --- | --- | --- | --- | --- | --- | --- | --- |
| OCCOCCN1CCN(C2=Nc3ccccc3Sc3ccccc32)CC1 [Quetiapine hemifumarate] | 130 | 87.7 | 118 | 149 | 117 |  |  |  |  |  |
| CCOC(=O)[C@H](CCc1ccccc1)N[C@@H](C)C(=O)N1Cc2ccccc2C[C@H]1C(=O)O [Quinapril] |  |  |  |  |  | 95.3 | 90.0 | 85.6 |  | activation at 2 µM [1, 7]: 2.2%; activation at 10 µM [1, 8]: -12.2% |
| C=C[C@H]1C[N@@]2CC[C@H]1C[C@H]2[C@H](O)c1ccnc2ccc(OC)cc12 [Quinine] |  |  |  |  |  | 93.4 | 87.0 |  |  | activation at 2 µM [1, 7]: -22.9%; activation at 10 µM [1, 8]: -65.5% |
| CN1CCc2cc(Cl)c(O)cc2[C@@H](c2ccccc2)C1 [R(+) SCH 23390] |  |  |  |  |  |  |  |  |  | 0.4 uM (% Quet) ([1]; test compound at 0.4 uM, NCC library screen, sheet "All OLga data", relative to quetiapine): -16.1 % Quet; 2 uM (% Quet) ([1]; test compound at 2 uM, NCC library screen, sheet "All OLga data", relative to quetiapine): -24.3 % Quet; 0.1 µM (% DMSO) (expanded OPCs; alamarBlue viability, NCC library compound at 0.1 µM, sheet "All Tox data"): 84.2 % DMSO; 1 µM (% DMSO) (expanded OPCs; alamarBlue viability, NCC library compound at 1 µM, sheet "All Tox data"): 78.8 % DMSO; 10 µM (% DMSO) (expanded OPCs; alamarBlue viability, NCC library compound at 10 µM, sheet "All Tox data"): 64.1 % DMSO |
| COc1ccc2[nH]cc(C3=CCNCC3)c2c1 [RU-24969] | -15.5 |  | 83.2 | 62.4 | 36.7 |  |  |  |  | activation at 0.4 µM [1, 12]: -5.3% |
| COCCCOc1ccnc(C[S+]([O-])c2nc3ccccc3[nH]2)c1C (centres unmarked) [Rabeprazole] | -8.5 | -69.9 | 101 | 85.1 | 76.7 |  |  |  |  |  |
| CC(=O)SCC(Cc1ccccc1)C(=O)NCC(=O)OCc1ccccc1 (centres unmarked) [Racecadotril] |  |  |  |  |  |  |  |  | 23 | activation at 10 µM [1, 14]: 56.4%; viability at 0.1 µM (expanded OPCs; [15]): 87.4%; viability at 1 µM (expanded OPCs; [16]): 92.9%; viability at 10 µM (expanded OPCs; [17]): 77.6% |
| CCN1CCC[C@H]1CNC(=O)c1c(O)c(Cl)cc(Cl)c1OC [Raclopride] |  |  |  |  |  |  |  |  | 12.4 | activation at 10 µM [1, 14]: 43.4%; viability at 0.1 µM (expanded OPCs; [15]): 93.2%; viability at 1 µM (expanded OPCs; [16]): 92.8%; viability at 10 µM (expanded OPCs; [17]): 89.9% |
| O=C(c1ccc(OCCN2CCCCC2)cc1)c1c(-c2ccc(O)cc2)sc2cc(O)ccc12 [Raloxifene, reference compound] |  |  |  |  |  | 161.1 | 38.6 | 7.7 |  | activation at 0.08 µM ([1]; Rattus norvegicus, test compound at 0.08 uM, MBP expression relative to quetiapine, NCC library screen, sheet "All OLga data", read-out: 0.08 uM (% Quet)): 91.9%; activation at 0.4 µM [1, 18]: -62.1%; EC50 ([1]; Rattus norvegicus, average EC50 for induction of OL differentiation from independent biological replicates, eight concentrations): 100 nM; hit in OL differentiation assay, MRF-TMC ([1]; ● = confirmed hit in this paper's assay): ● |
| Cc1nc2ccc(CN(C)c3ccc(C(=O)N[C@@H](CCC(=O)O)C(=O)O)s3)cc2c(=O)[nH]1 [Raltitrexed] | -13.8 | -1.3 | 71.4 | 63.5 | 59.6 |  |  |  |  |  |
| CCOC(=O)[C@H](CCc1ccccc1)N[C@@H](C)C(=O)N1[C@H](C(=O)O)C[C@@H]2CCC[C@@H]21 [Ramipril] |  |  |  |  |  |  |  |  | -3.3 | activation at 10 µM [1, 14]: -14.5%; activation at 2 µM [1, 7]: 2.5%; activation at 10 µM [1, 8]: -1.1%; viability at 0.1 µM (expanded OPCs; [15]): 90.8%; viability at 1 µM (expanded OPCs; [16]): 98.4%; viability at 10 µM (expanded OPCs; [17]): 100%; 0.1 µM (% DMSO) (expanded OPCs; rat, 3 days, 0.1 µM): 92.1 % DMSO; 1 µM (% DMSO) (expanded OPCs; rat, 3 days, 1 µM): 96.0 % DMSO; 10 µM (% DMSO) (expanded OPCs; rat, 3 days, 10 µM): 96.0 % DMSO |
| CNC(=C[N+](=O)[O-])NCCSCc1ccc(CN(C)C)o1 [Ranitidine] | -29.4 | -7.9 |  |  |  | 109.0 | 105.8 | 106.7 |  |  |
| COc1ccccc1OCC(O)CN1CCN(CC(=O)Nc2c(C)cccc2C)CC1 (centres unmarked) [Ranolazine] |  |  |  |  |  |  |  |  | 11.6 | activation at 10 µM [1, 14]: -35.3%; viability at 0.1 µM (expanded OPCs; [15]): 99.2%; viability at 1 µM (expanded OPCs; [16]): 92.2%; viability at 10 µM (expanded OPCs; [17]): 95.9% |
| CC(Cc1ccccc1)(NC(=O)CN)c1ccccc1 (centres unmarked) [Remacemide] |  |  | 113 | 88.6 | 44.7 |  |  |  | 4.8 | activation at 0.4 µM [1, 19]: 5.6% |
| CN1CCN2c3ncccc3Cc3ccccc3C2C1 (centres unmarked) [Remergil] |  |  |  |  |  |  |  |  |  | 2 uM (% Quet) ([1]; test compound at 2 uM, MBP expression relative to quetiapine, NCC library screen, sheet "All OLga data"): -49.3 % Quet; 10 uM (% Quet) ([1]; test compound at 10 uM, MBP expression relative to quetiapine, NCC library screen, sheet "All OLga data"): -63.5 % Quet; 0.1 µM (% DMSO) (expanded OPCs): 90.1 % DMSO; 1 µM (% DMSO) (expanded OPCs): 82.0 % DMSO; 10 µM (% DMSO) (expanded OPCs): 62.7 % DMSO |
| CCOc1cc(CC(=O)N[C@@H](CC(C)C)c2ccccc2N2CCCCC2)ccc1C(=O)O [Repaglinide] | 13.8 | -23.7 | 90.5 | 96.8 | 125 |  |  |  |  |  |
| Oc1ccc(/C=C/c2cc(O)cc(O)c2)cc1 [Resveratrol] | -34.1 | -128 | 83.2 | 87.6 | 76.7 |  |  |  |  |  |
| CC1=C(/C=C/C(C)=C/C=C/C(C)=C/C(=O)O)C(C)(C)CCC1 [Retinoic Acid] | 128 |  |  |  |  | 144.5 | 188.5 | 58.3 |  | activation at 0.4 µM [1, 12]: -23% |
| NC(=O)c1ncn([C@@H]2O[C@H](CO)[C@@H](O)[C@H]2O)n1 [Ribavirin] |  |  |  |  |  | 96.2 | 92.8 | 76.9 |  | activation at 0.4 µM [1, 18]: 8.6%; activation at 2 µM [1, 7]: 6.7% |
| CO[C@H]1/C=C/O[C@@]2(C)Oc3c(C)c(O)c4c(c3C2=O)C2=NC3(CCN(CC(C)C)CC3)NC2=C(NC(=O)/C(C)=C\C=C\[C@H](C)[C@H](O)[C@@H](C)[C@@H](O)[C@@H](C)[C@H](OC(C)=O)[C@@H]1C)C4=O [Rifabutin] |  |  |  |  |  | 95.3 | 77.1 | 32.3 | -31.8 | activation at 0.4 µM [1, 19]: 16.3%; activation at 0.4 µM [1, 18]: -0.04%; activation at 2 µM [1, 7]: -15.6%; viability at 0.1 µM (expanded OPCs; [15]): 86.7%; viability at 1 µM (expanded OPCs; [16]): 79.7%; viability at 10 µM (expanded OPCs; [17]): 37% |
| CO[C@H]1/C=C/O[C@@]2(C)Oc3c(C)c(O)c4c(O)c(c(/C=N/N5CCN(C)CC5)c(O)c4c3C2=O)NC(=O)/C(C)=C\C=C\[C@H](C)[C@H](O)[C@@H](C)[C@@H](O)[C@@H](C)[C@H](OC(C)=O)[C@@H]1C [Rifampicin] | -69.7 | -188 |  |  |  | 91.7 | 85.6 | 62.3 |  |  |
| CO[C@H]1/C=C/O[C@@]2(C)Oc3c(C)c(O)c4c(O)c(c(/C=N/N5CCN(C6CCCC6)CC5)c(O)c4c3C2=O)NC(=O)/C(C)=C\C=C\[C@H](C)[C@H](O)[C@@H](C)[C@@H](O)[C@@H](C)[C@H](OC(C)=O)[C@@H]1C [Rifapentine] |  |  | 94.8 | 73 | 25.3 | 89.9 | 78.4 | 40.0 | -70.1 | activation at 0.4 µM [1, 19]: -16.7%; activation at 0.4 µM [1, 18]: -18.6%; activation at 2 µM [1, 7]: -118% |
| CO[C@H]1/C=C/O[C@@]2(C)Oc3c(C)c(O)c4c(O)c(c5c(nc6cc(C)ccn65)c4c3C2=O)NC(=O)/C(C)=C\C=C\[C@H](C)[C@H](O)[C@@H](C)[C@@H](O)[C@@H](C)[C@H](OC(C)=O)[C@@H]1C [Rifaximin] |  |  | 101 | 69.4 | 21 |  |  |  | -77.9 | activation at 0.4 µM [1, 19]: -15.2% |
